Measurements from a melting point compilation (Tetko et al.; mined from patent text by program, amines drawn as free bases though some values may be those of a salt).

melting point | Structure (SMILES)
161 °C | O=c1nc(-c2cccc(Oc3ccccc3)n2)sc2ccccc12
141 to 142 °C | NN(CCO)C(=O)Nc1ccc(Cl)cc1
149 to 150 °C | COc1cc(OC)c2c(=O)[nH]c(-c3cccc(N4CCN(C(C)C(N)=O)CC4)n3)nc2c1 (centres undefined)
119 to 120 °C | Cc1c(Br)nc(Br)c(=O)n1C
105 to 107 °C | CSc1ccc(C(CC2CCCO2)C(=O)O)cc1 (centres undefined)
224 °C | O=C(Nc1ccc2c(c1)C(=O)c1cc(NC(=O)c3ccccc3)ccc1C2=O)c1ccccc1
67 to 69 °C | O=C(NC12CC3CC(CC(C3)C1)C2)OCCc1cccs1
140 °C | CN1C(=O)C2CC2(c2ccc(N(C)C)cc2)C1=O (centres undefined)
> 250 °C | Cc1c(C=O)c2cc(Br)ccc2n1-c1ccc(O)cc1
243 to 251 °C | CC(=O)c1c(-c2ccc(O)cc2)oc2ccc(O)cc12
142 to 145 °C | COC(=O)c1c(-c2nccn2C)c2cnc(N3CCC[C@H]3CO)nc2n(Cc2ccc(OC)c(Cl)c2)c1=O
195 °C | COc1ccccc1-c1ccc(C[C@@H](NC(=O)c2c(Cl)cccc2Cl)C(=O)O)cc1
116 °C | COC(=O)C(=O)c1occc1/C=C/c1ccccc1
213 to 215 °C | Cc1nc(-c2cccc(C(=O)c3ccccc3)c2)sc1C(=O)O
109 to 111 °C | CCOCC1(F)CCN(c2ccc(N3C[C@H](CNC(C)=O)OC3=O)cc2F)CC1
70 to 71 °C | Cn1ncc(C=O)c1-c1ccoc1
151 to 152 °C | CC(=NO)c1ccnc(C)c1
149 to 150 °C | O=C(NC1CCOCC1)c1cnccc1C(F)(F)F
171 to 173 °C | CCN1CCN(c2cc3ccccc3c(=O)[nH]2)C[C@@H]1CO
211 to 212 °C | O=C(NS(=O)(=O)c1cc(C(F)(F)F)ccc1Cl)c1cn2cc(C(F)(F)F)cnc2n1
98 to 99 °C | CC(C)(C)OC(=O)C(Cc1ccccc1)c1ccc([N+](=O)[O-])cc1 (centres undefined)
164 to 165 °C | Cc1ccc(N2CCN(CCCCc3ccc(C4CCC(=O)N4)cc3)CC2)cc1 (centres undefined)
167 to 169 °C | CCOC(CN1C(=O)C(NC(=O)Nc2cccc(C)c2)CN(C(=O)C(C)(C)C)c2ccccc21)OCC (centres undefined)
198 to 200 °C | NC1=NC(Cl)N(c2c([N+](=O)[O-])cc([N+](=O)[O-])cc2C(F)(F)F)C(Cl)=C1 (centres undefined)

melting point | Structure (SMILES)
159 to 163 °C | CC(C)(C)OC(=O)N1CCC(C(=O)N2CCN(c3ccncn3)CC2)CC1
191 to 193 °C | COc1cc(C)nc(NCn2cncn2)n1
223 to 226 °C | Nc1nc(F)cc(Oc2ccc(Cl)cc2)n1
78 to 79 °C | COc1ccc(C#N)c(ON=C(C)C)c1
298 °C | O=c1[nH]c(-c2c[nH]c3ccccc23)nc2ccc(N3CCCC3)cc12
324 to 327 °C | Oc1ncc(-c2ccc(Cl)cc2)cn1
152 to 155 °C | Nc1ccc(Cl)c(S(=O)c2ccccc2)c1 (centres undefined)
85 °C | CCCCOc1ccc2ccccc2c1-c1c(OCCCC)ccc2ccccc12
158 to 159 °C | COc1ccc(Cl)cc1-n1cncc1-c1ccc(C(F)(F)F)cc1
151 to 152 °C | Cc1nc(O)sc1CCCl
214 °C | CCCCN1CCn2c1nc(C(=O)NCc1ccc(F)cc1-n1cnc(C)n1)c(O)c2=O
67 to 69.5 °C | CCCCCCCCCCCCCc1cc(C(=O)OCCBr)c[nH]1
81 to 91 °C | CCOC(=O)C=Cc1ccc(OC)c2c1CC1(CCCC1)O2
111 to 113 °C | O=C(Nc1ccccc1N1CCCCC1)c1ccncc1
228 to 230 °C | CCn1nc2c(N)nc3ccccc3c2c1CC1(F)CCN(C(C)=O)CC1
75 to 76.5 °C | COc1nc(C)cnc1N
148 to 152 °C | Nc1ncc(-c2ccccc2)nc1Br
201 to 203 °C | CCCc1nn(C)c2c(=O)[nH]c(Cc3ccc(N(CC)CC)cc3)nc12
207 to 210 °C | O=C(Nc1ccc(CN2C(=O)[C@H]3CCC[C@H]3N(C(=O)CCl)c3ccccc32)cc1)Oc1ccccc1 (relative stereo)
178 to 180 °C | COc1ccc(C(=O)c2cc(F)ccc2F)c(O)c1Cl
176 to 177 °C | COc1ccc(-c2cc(Nn3cnnc3)ccc2C#N)cc1
62 to 63 °C | CC(C)c1nc(CCN(C)C(=O)N[C@H](C(=O)N[C@@H](Cc2ccccc2)C[C@H](O)[C@H](Cc2ccccc2)NC(=O)OCc2cncs2)C(C)C)cs1
232 to 233 °C | COc1ccc(-c2nc3nccnc3[nH]2)c(OCC#N)c1
276 to 277 °C | O=c1[nH]c2ncc(-c3ccc(O)cc3)nc2n1CCC1CCOCC1

melting point | Structure (SMILES)
162 °C | CC(=O)Nc1ccc2c(c1)S(=O)(=O)N(CCCCN1CCN(c3ncccn3)CC1)C2=O
262 to 264 °C | O=C1NCCN1c1ccc(S(=O)(=O)Nc2ccccc2)cc1
208 to 212 °C | CC(C)(C)c1nc(N)n(-c2c(Cl)cc(C(F)(F)F)cc2Cl)n1
213 to 215 °C | CCOC(=O)c1cc(=O)cc(-c2ccccc2O)o1
270 to 271 °C | CNC(=O)c1cccc(F)c1Nc1nc(Nc2ccc3c(c2)NC(=O)C(N2CCOCC2)CC3)ncc1Cl (centres undefined)
166 to 169 °C | CCOS(=O)(=O)c1nc2nc(C)cc(Cl)n2n1
134 to 135 °C | Cc1ccc(C=CC(C#N)=NOS(C)(=O)=O)cc1
174 °C | Cc1nn(CC(F)(F)F)c(-c2ccc(F)cc2)c1-c1ccc2c(c1)NC(=O)CO2
148 to 149 °C | CCCCCCC#CC(O)C1=Nc2ccccc2C(=O)C1C (centres undefined)
124 °C | CN(c1cccc(C=C2c3ccccc3CCc3ccccc32)c1)S(C)(=O)=O
254 to 256 °C | O=C(c1ccccc1)c1cc2c(s1)S(=O)(=O)CCc1cc(=O)n(-c3ccc(Cl)cc3)nc1-2
231 to 233 °C | CNC(=O)c1ccc(CCN2CC=C(c3c[nH]c(-c4ccc(F)cc4)c3-c3ccncc3)CC2)cc1
128 to 129 °C | Cc1c(C)c2c(c(C)c1NC(=O)CC(C)(C)C)OC(C)(C)C2c1ccc(C(C)C)cc1 (centres undefined)
75 to 78 °C | CCCCCCCCCCCCNC(=S)NCCCCCCCCCCCC
97 °C | C[Si]1(C)CCCCCCCCCCCCCC[Si](C)(C)O[Si](C)(C)CCCCCCCCCCCCCC[Si](C)(C)O1
134 to 135 °C | CCNC(=O)c1c([Si](C)(C)C)ccc(-c2ccccc2)c1Cl
89.5 to 90.5 °C | CCCc1c2c(cc3c(=O)cc(C(=O)OCC)oc13)CC(C(=O)OCC)CC2 (centres undefined)
141 to 143 °C | CN(C)CC1CCCN(c2cc3ccccc3c(=O)[nH]2)C1 (centres undefined)
104 to 106 °C | CCOC(=O)c1sc(I)nc1-c1ccccc1
76 to 78 °C | OC(CNCCCc1ccc(OCCOCCc2ccccc2)cc1)COc1ccccc1 (racemic)
177 to 179 °C | Cc1nc(-c2cccc(OC(C)C)c2)sc1C(=O)O
101 to 103 °C | CN1CCC(=C2c3ccccc3OCc3cc(Br)sc32)CC1
248 to 250 °C | Cc1cccc(C)c1-n1cnc(N)nc1=O

Structure (SMILES) | melting point
CCOC(=O)c1ncn2c1[C@@H]1CCCN1C(=O)c1cc([N+](=O)[O-])ccc1-2 | 191 to 193 °C
CS(=O)(=O)Nc1cnc([N+](=O)[O-])cn1 | 204 to 207 °C
Cc1cc2c(cc1C)n(C1CCNCC1)c(=O)n2C | 171 to 172 °C
